pKi: −log10 of the molar value. Read-outs that look alike come from different tables or passages of the source.

A word on the pKi: it is −log10 of the Ki, conventionally taken in molar units. As usually defined, the microsomal CLint is the rate of metabolic loss divided by the concentration. As usually defined, the Cmax is the highest concentration seen after dosing.

Data set [1] deals with MK-801 binding site of the N-methyl-D-aspartate receptor (NMDAR). Kind of data set: NMDA receptor radioligand binding with [3H]MK-801. Further details: species or system Wistar rat. The conditions noted are these: for pKi: [3H]MK-801 displacement, Wistar rat brain (minus cerebellum), read-out: NMDAR Ki (95% CI). How it is done:
The binding affinities of disclosed compounds at the MK-801 binding site of the N-methyl-D-aspartate receptor (NMDAR) were determined in radioligand binding experiments (Table 13).
Radioligand Binding. Affinity of the test compounds for NMDAR was determined in radioligand binding experiments with [^3H]MK-801 by Eurofins Panlabs, Inc., using methods adapted from the literature (Javitt el al. 1987; Reynolds et al. 1989) and under the conditions described in Table 14.

Data set [2] is described as follows: Metabolic stability in cynomolgus monkey liver microsomes (CLM). The data set is classed as in vitro ADME, cynomolgus monkeys. The conditions noted are these: for half-life at 1 μM / microsomal CLint at 1 μM: male, cynomolgus monkey, pooled cynomolgus monkey liver microsomes, pH 7.4, 1 μM compound, 0.50 mg protein/mL, NADPH. How it is done:
CLM Stability. Pooled CLM from male cynomolgus monkeys (Corning 452413) were used. Microsomal incubations were carried out in multi-well plates. Liver microsomal incubation medium consisted of PBS (100 mM, pH 7.4), MgCl2 (1 mM), and NADPH (1 mM), with 0.50 mg of liver microsomal protein per mL. Control incubations were performed by replacing the NADPH-cofactor system with PBS. Test compounds (1 μM, final solvent concentration 1.0%) were incubated with microsomes at 37° C. with constant shaking. Six time points over 60 minutes were analyzed, with 60 μL aliquots of the reaction mixture being drawn at each time point. The reaction aliquots were stopped by adding 180 μL of cold (4° C.) acetonitrile containing 200 ng/mL tolbutamide and 200 ng/mL labetalol as internal standards (IS), followed by shaking for 10 minutes, and then protein sedimentation by centrifugation at 4,000 rpm for 20 minutes at 4° C. Supernatant samples (80 μL) were diluted with water (240 μL) and analyzed for parent compound remaining using a fit-for-purpose liquid chromatography-tandem mass spectrometry (LC-MS/MS) method.
Data Analysis. The elimination constant (kel), half-life (t1/2) and intrinsic clearance (Clint) were determined in a plot of […] versus time, using linear regression analysis.
Background: Liver microsomes are vesicles of endoplasmic reticulum, rich in cytochrome P450 enzymes.

Data set [3] in a line: Oral bioavailability in mice, Method B (plasma and brain PK). Format: in vivo, C57BL/6 mice. The conditions noted are these: for half-life / Cmax / AUC(0-inf): male, C57BL/6; for half-life / Cmax / AUC(0-inf) / AUC0-inf (iv) / AUC0-inf (po) / F: Method B; for AUC(0-inf) / AUC0-inf (iv) / AUC0-inf (po): values represent AUC0-last; for F: 1 mg/kg. The protocol:
Animals. Male C57BL/6 mice were used in these studies. Animals were randomly assigned to treatment groups and were fasted for 4 h before dosing.
Drugs. Test compounds were dissolved in a vehicle consisting of normal saline (for compounds used as the HCl salt) or normal saline slightly acidified with aq. HCl (for freebase compounds). They were then administered intravenously (iv) or orally (po) at a dose of 1 or 10 mg/kg (calculated based on freebase), as indicated, and at a volume of 5 mL/kg body weight. Compounds were tested as the racemates or pure enantiomers, as indicated.
Sample Collection and Bioanalysis. Blood samples (approximately 60 μL) were collected under light isoflurane anesthesia (Surgivet®) from the retro orbital plexus at 0.08, 0.25, 0.5, 1, 2, 4, 8, and 24 h (4 animals per time point). Immediately after blood collection, plasma was harvested by centrifugation at 4,000 rpm for 10 min at 4° C. and samples were stored at −70±10° C. until bioanalysis. Following blood collection, animals were immediately sacrificed, the abdominal vena-cava was cut open, and the whole body was perfused from the heart using 10 mL of normal saline, and brain samples were collected from all animals. After isolation, brain samples were rinsed three times in ice-cold normal saline (for 5-10 seconds/rinse using ˜5-10 mL, normal saline in disposable petri dish for each rinse) and dried on blotting paper. Brain samples were homogenized using ice-cold phosphate-buffered saline (pH 7.4). Total homogenate volume was three times the tissue weight. All homogenates were stored at −70±10° C. until bioanalysis. For bioanalysis, 25 μL aliquots of plasma/brain study samples or spiked plasma/brain calibration standards were added to individual pre-labeled micro-centrifuge tubes followed by 100 μL of an internal standard solution (glipizide, 500 ng/mL in acetonitrile) except for blanks, where 100 μL of acetonitrile was added. Samples were vortexed for 5 minutes and then centrifuged for 10 minutes at 4,000 rpm at 4° C. Following centrifugation, 100 μL of each clear supernatant was transferred to a 96 well plate and analyzed with a fit-for-purpose LC-MS/MS method, with authentic samples of each analyte used for calibration and identification.
Data Analysis. Pharmacokinetic parameters were estimated using the non-compartmental analysis tool of Phoenix® WinNonlin software (Ver 8.0).

The mark [4] stands for this setting: mouse brain, 1 mg/kg iv, read-out: t1/2 (iv).
Where [5] appears, read: mouse plasma, 1 mg/kg iv, read-out: t1/2 (iv).
Setting [6] is: mouse plasma, 1 mg/kg iv, read-out: AUC0-inf (iv) (converted).
[7] abbreviates: mouse plasma, 1 mg/kg po, read-out: t1/2 (po).
The mark [8] stands for this setting: mouse plasma, 1 mg/kg po, read-out: AUC0-inf (po) (converted).
Where [9] appears, read: mouse brain, calculated based on brain exposure (AUC0-last).
Where [10] appears, read: mouse plasma, based on AUC0-last.
Where [11] appears, read: mouse brain, 1 mg/kg po, read-out: t1/2 (po).

Turning to `N[C@]1(c2ccc(F)cc2)CCCCC1=O` [Compound 1S, (S)-2-amino-2-(4-fluorophenyl)cyclohexan-1-one], the pKi in data set [1] was 5.77. The compound further displayed a half-life at 1 μM in data set [2] above 145 min. In data set [2], the intrinsic metabolic clearance (microsomal CLint) at 1 μM was below 9.6 µL/min/mg. Further, the half-life worked out at 36.6 min in data set [3] (setting [4]), 86.4 min in data set [3] (setting [5]) and 82.2 min in data set [3] (setting [7]). Besides, the peak concentration (Cmax) was found to be 82.2 ng/g in data set [3] (mouse brain, 1 mg/kg po) and 394 ng/mL in data set [3] (mouse plasma, 1 mg/kg po). Besides, the AUC(0-inf) in data set [3] (setting [6]) was 501 ng·h/mL; in data set [3] (setting [8]) it was 470 ng·h/mL. Also, in data set [3] (mouse brain, 1 mg/kg iv), the “AUC0-inf (iv)” value is given as 14,776 ng*min/g. For the same compound, in data set [3] (mouse brain, 1 mg/kg po), the “AUC0-inf (po)” value is reported as 6,557 ng*min/g. Also, the F is 44% in data set [3] (setting [9]) and 94% in data set [3] (setting [10]).
Regarding `CN[C@@]1(c2ccc(F)cc2)CCCCC1=O` [Compound 2R, (R)-2-(4-fluorophenyl)-2(methylamino)cyclohexan-1-one], in data set [1] (MK-801 site of NMDAR), the “NMDAR binding potency relative to enantiomer 2S (less potent)” value is given as around 3 fold. Besides, in data set [1], the pKi is 5.48. Moreover, the “stability in CLM (in words)” value in data set [2] is recorded as “substantially more stable”. Further, the half-life at 1 μM in data set [2] was determined as 62.3 min. Moreover, the microsomal CLint at 1 μM in data set [2] was found to be 22.2 µL/min/mg. The half-life in data set [3] (setting [4]) stood at 23.4 min; in data set [3] (setting [11]), 36 min; in data set [3] (setting [5]), 45 min; in data set [3] (setting [7]) it was 29.4 min. Also, the Cmax in data set [3] (mouse brain, 1 mg/kg po) worked out at 177 ng/g; in data set [3] (mouse plasma, 1 mg/kg po), 53.6 ng/mL. Also, the AUC(0-inf) was 96.3 ng·h/mL in data set [3] (setting [6]) and 38.8 ng·h/mL in data set [3] (setting [8]). In addition, the “brain exposure after oral administration compared to enantiomer 2S” value in data set [3] (mice) is “substantially higher brain exposure”. Besides, the “AUC0-inf (iv)” value in data set [3] (mouse brain, 1 mg/kg iv) is on record as 17,791 ng*min/g. The “AUC0-inf (po)” value in data set [3] (mouse brain, 1 mg/kg po) is reported as 5,890 ng*min/g. Moreover, the F is 33% in data set [3] (setting [9]) and 40% in data set [3] (setting [10]).
In the case of `CN[C@]1(c2ccc(F)cc2)CCCCC1=O` [Compound 2S, (S)-2-(4-fluorophenyl)-2-(methylamino)cyclohexan-1-one], the pKi in data set [1] is 5.92. This compound had a half-life at 1 μM in data set [2] of 38.3 min. In data set [2], this compound came in with a microsomal CLint at 1 μM of 36.1 µL/min/mg. The half-life in data set [3] (setting [4]) turned out to be 21.6 min; in data set [3] (setting [11]), 42 min; in data set [3] (setting [5]), 54.6 min; in data set [3] (setting [7]), 50.4 min. The Cmax in data set [3] (mouse brain, 1 mg/kg po) amounted to 80.4 ng/g; in data set [3] (mouse plasma, 1 mg/kg po), 51.7 ng/mL. The AUC(0-inf) was 119 ng·h/mL in data set [3] (setting [6]) and 46.6 ng·h/mL in data set [3] (setting [8]). In data set [3] (mouse brain, 1 mg/kg iv), the “AUC0-inf (iv)” value is 21,532 ng*min/g. The “AUC0-inf (po)” value in data set [3] (mouse brain, 1 mg/kg po) was 4,264 ng*min/g. The F is given as 20% in data set [3] (setting [9]) and 39% in data set [3] (setting [10]).
For `N[C@]1(c2cccc(F)c2)CCCCC1=O` [Compound 3S], the pKi in data set [1] is 5.77. This compound also registered a half-life at 1 μM in data set [2] of 83.7 min. In addition, in data set [2], the microsomal CLint at 1 μM amounted to 16.6 µL/min/mg. Also, the half-life in data set [3] (setting [4]) stood at 26.4 min; in data set [3] (setting [11]), 40.8 min; in data set [3] (setting [5]), 101 min; in data set [3] (setting [7]) it was 29.4 min. In addition, the Cmax in data set [3] (mouse brain, 1 mg/kg po) is 112 ng/g; in data set [3] (mouse plasma, 1 mg/kg po) it was 640 ng/mL. Also, the values for the AUC(0-inf) in data set [3] (setting [6]) and in data set [3] (setting [8]) were 608 ng·h/mL and 542 ng·h/mL, respectively. The “AUC0-inf (iv)” value in data set [3] (mouse brain, 1 mg/kg iv) is 18,797 ng*min/g. The “AUC0-inf (po)” value in data set [3] (mouse brain, 1 mg/kg po) was 7,418 ng*min/g. For the same compound, the F in data set [3] (setting [9]) is 39%; in data set [3] (setting [10]), 89%.

The values are drawn from US20240300886A1, “ARYLCYCLOHEXYLAMINE DERIVATIVES AND THEIR USE IN THE TREATMENT OF PSYCHIATRIC DISORDERS” (GILGAMESH PHARMACEUTICALS, INC., priority 2021, published 2024).
